# Reference: patent publication US7384983B2, “Inhibitor of monoamine uptake” (Eli Lilly and Company, priority 2001, dated 2008)
# Tests used:
# uptake of serotonin = assay: Microdialysis Assays of Monoamines: inhibition of serotonin uptake; conditions: tested essentially as described for microdialysis assays
# Experimental: (§1) Microdialysis Assays of Monoamines
# (§2) Sprague-Dawley rats (Harlan or Charles River) weighing 270-300 grams are surgically implanted with microdialysis probes under chloral hydrate/pentobarbital anesthesia (170 and 36 mg/kg i.p. in 30% propylene glycol, 14% ethanol) as described by Perry and Fuller. (Perry and Fuller, Effect of fluoxetine on serotonin and dopamine concentration in rat hypothalamus after administration of fluoxetine plus L-5-hydroxytryptophan, Life Sci., 50, 1683-90 (1992)). A David Kopf stereotaxic instrument is used to implant the probe unilaterally in the hypothalamus at coordinates rostral −1.5 mm, lateral −1.3 mm, and ventral −9.0 mm (Paxinos and Watson, 1986). After a 48-hour recovery period, rats are placed in a large plastic bowl with a mounted liquid swivel system (CMA/120 system for freely moving animals, Bioanalytical Systems, West Lafayette, Ind.). Filtered artificial cerebrospinal fluid (CSF) (150 mM NaCl, 3.0 MM KCl, 1.7 mM CaCl2, and 0.9 mM MgCl2) is perfused through the probe at a rate of […]. […]
# (§3) The method used to measure monoamines is as described by Perry and Fuller (1992). […] The electrochemical detector (EG&G, Model 400) for the amine column is set at a potential of 400 mV and a sensitivity of 0.2 nA/V. Basal levels are measured for at least 90 minutes prior to drug administration. […]
# uptake of norepinephrine = assay: Microdialysis Assays of Monoamines: inhibition of norepinephrine uptake; assay type: in vivo, Sprague-Dawley rats; conditions: tested essentially as described for microdialysis assays
# Experimental: as §1, §2, §3
smiles,measurement,setting,value
CNCC[C@@H](Oc1ccc(O)cc1C)c1ccccc1 [R-(−)-N-methyl 3-((2-methyl-4-hydroxyphenyl)oxy)-3-phenyl-1-aminopropane],Ki,uptake of serotonin,43 nM
same,Ki,uptake of norepinephrine,3 nM
